Assay results taken from article PMC5566973 (Frontiers in Pharmacology, 2017).

How the values were obtained:
[1] = target: T1, human MRP2 (Homo sapiens, UniProt Q92887); assay: Vesicular transport assay, Sf9 membrane vesicles expressing human MRP2; format: in vitro ADME; conditions: probe at 50 μM
T1 construct: purchased GenoMembrane (Kanagawa, Japan); host or cells: Sf9
Experimental: (§1) The vesicular transport assay was implemented as described in the GenoMembrane™ vesicular transport kit protocol (GenoMembrane, Kanagawa, Japan) with minor changes. Briefly, vesicle stocks were thawed and diluted with assay buffer (50 mM MOPS-Tris, 70 mM KCl, and 7.5 mM MgCl2). […] MgAMP instead of MgATP was used as a control. Apart from these, 4 mM glutathione was also included in BCRP and MRP2 assays. Transport was terminated with ice cold assay buffer, and then samples were quickly transferred to a filter plate. Wells were immediately washed 5 times with 200 μL assay buffer and dried. The vesicles on the plate were dissolved in 50 μL of 80% methanol and centrifuged at 2,000 rpm for 2 min after collection, and repeating the above procedures. Mixed the two filtrates together and added the pre-cooled methanol. After centrifugation at 12,000 rpm for 5 min at 4°C, a 5 μL aliquot of supernatant was injected into the UPLC-ESI-MS/MS system for analysis. Furthermore, the uptake of NMQ (MDR1), LY (BCRP), and E217βG (MRP2) was used to evaluate the activity of specific vesicles.

[2] = Urinary and fecal excretion in rats; format: in vivo, Sprague-Dawley rats; conditions: for Cumulative excretion of the analyte, SUM of urine and feces: within 72 h
Experimental: Access to water was maintained all the time. Samples including blank urine and feces before dosing, urine and feces from 0 to 24 h, 24 to 48 h, and 48 to 72 h after dosing were collected and stored at −80°C until analysis.
Urine samples were thawed and an aliquot of 100 μL was processed for detection as described in Section Drug Analysis. Feces were homogenized and then weighed, added 6-folds of acetonitrile, extracted by ultrasonic wave for 1 h and then centrifuged. An aliquot of 100 μL was also processed for detection as described in Section Drug Analysis.

[3] = target: T2, human MDR1 (Homo sapiens, UniProt P08183); assay: Vesicular transport assay, Sf9 membrane vesicles expressing human MDR1; format: in vitro ADME; conditions: probe at 5 μM
T2 construct: purchased GenoMembrane (Kanagawa, Japan); host or cells: Sf9
Experimental: as §1

[4] = system: Caco-2 cell monolayers; conditions: transcellular flux marker; ref Shen et al., 2015; cited from earlier work
[5] = target: T3, human BCRP (Homo sapiens, UniProt Q9UNQ0); assay: Vesicular transport assay, Sf9 membrane vesicles expressing human BCRP; format: in vitro ADME; conditions: 10 μM, MgATP vs MgAMP
T3 construct: purchased GenoMembrane (Kanagawa, Japan); host or cells: Sf9
T3 sequence (Q9UNQ0 1-655): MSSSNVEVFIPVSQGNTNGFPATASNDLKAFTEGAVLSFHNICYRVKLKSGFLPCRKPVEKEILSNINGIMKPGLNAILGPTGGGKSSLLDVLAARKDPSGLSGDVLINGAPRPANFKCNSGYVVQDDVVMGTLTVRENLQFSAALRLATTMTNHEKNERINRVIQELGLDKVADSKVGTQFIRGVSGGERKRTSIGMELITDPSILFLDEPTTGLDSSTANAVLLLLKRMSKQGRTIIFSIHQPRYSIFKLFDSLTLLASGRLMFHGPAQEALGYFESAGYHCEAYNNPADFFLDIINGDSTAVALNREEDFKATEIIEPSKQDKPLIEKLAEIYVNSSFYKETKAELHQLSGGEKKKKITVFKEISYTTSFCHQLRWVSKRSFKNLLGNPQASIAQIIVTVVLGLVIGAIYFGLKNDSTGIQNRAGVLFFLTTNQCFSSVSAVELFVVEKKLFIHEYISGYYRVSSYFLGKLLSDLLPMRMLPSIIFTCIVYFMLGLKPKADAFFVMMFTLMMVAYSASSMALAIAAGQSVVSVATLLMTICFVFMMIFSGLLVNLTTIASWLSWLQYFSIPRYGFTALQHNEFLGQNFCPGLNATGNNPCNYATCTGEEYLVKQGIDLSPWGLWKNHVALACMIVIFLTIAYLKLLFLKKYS
Experimental: as §1

[6] = after oral harmaline 40.0 mg/kg, 24 h
[7] = after oral harmaline 40.0 mg/kg, 48 h
[8] = after oral harmaline 40.0 mg/kg, 72 h
[9] = after oral harmaline 40.0 mg/kg
[10] = after oral harmine 40.0 mg/kg, 24 h
[11] = after oral harmine 40.0 mg/kg, 48 h
[12] = after oral harmine 40.0 mg/kg, 72 h

T2 sequence (P08183 whole entry): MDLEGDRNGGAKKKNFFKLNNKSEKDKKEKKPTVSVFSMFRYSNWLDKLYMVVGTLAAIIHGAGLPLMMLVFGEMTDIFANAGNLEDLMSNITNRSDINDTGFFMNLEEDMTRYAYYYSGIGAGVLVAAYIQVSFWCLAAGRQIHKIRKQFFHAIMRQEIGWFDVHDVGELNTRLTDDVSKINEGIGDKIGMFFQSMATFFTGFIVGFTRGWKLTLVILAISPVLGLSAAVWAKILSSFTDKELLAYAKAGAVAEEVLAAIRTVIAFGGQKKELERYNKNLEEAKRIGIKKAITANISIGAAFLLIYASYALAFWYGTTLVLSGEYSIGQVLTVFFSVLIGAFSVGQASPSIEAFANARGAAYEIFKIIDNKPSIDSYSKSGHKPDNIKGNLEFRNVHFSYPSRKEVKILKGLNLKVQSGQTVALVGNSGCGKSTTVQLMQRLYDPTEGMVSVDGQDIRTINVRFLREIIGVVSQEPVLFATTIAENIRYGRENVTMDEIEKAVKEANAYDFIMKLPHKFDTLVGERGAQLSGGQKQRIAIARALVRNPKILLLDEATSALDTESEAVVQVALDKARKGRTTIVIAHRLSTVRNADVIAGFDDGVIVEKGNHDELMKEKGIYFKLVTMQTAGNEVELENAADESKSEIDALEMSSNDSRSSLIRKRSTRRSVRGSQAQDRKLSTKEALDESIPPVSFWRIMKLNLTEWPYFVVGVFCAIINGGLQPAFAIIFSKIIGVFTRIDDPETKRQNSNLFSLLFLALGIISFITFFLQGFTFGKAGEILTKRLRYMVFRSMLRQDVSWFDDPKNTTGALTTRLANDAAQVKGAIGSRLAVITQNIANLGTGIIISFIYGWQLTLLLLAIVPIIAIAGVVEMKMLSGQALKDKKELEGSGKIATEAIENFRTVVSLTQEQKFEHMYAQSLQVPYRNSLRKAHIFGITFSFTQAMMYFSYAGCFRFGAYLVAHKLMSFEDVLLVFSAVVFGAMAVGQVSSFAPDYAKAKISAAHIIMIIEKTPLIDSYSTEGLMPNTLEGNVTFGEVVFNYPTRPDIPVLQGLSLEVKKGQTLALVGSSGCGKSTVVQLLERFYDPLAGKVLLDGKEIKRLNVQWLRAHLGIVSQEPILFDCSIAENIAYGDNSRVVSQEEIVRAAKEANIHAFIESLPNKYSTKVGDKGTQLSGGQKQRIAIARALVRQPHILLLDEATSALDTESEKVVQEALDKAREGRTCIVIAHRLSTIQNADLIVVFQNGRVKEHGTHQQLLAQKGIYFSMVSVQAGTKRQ
T1 sequence (Q92887 whole entry): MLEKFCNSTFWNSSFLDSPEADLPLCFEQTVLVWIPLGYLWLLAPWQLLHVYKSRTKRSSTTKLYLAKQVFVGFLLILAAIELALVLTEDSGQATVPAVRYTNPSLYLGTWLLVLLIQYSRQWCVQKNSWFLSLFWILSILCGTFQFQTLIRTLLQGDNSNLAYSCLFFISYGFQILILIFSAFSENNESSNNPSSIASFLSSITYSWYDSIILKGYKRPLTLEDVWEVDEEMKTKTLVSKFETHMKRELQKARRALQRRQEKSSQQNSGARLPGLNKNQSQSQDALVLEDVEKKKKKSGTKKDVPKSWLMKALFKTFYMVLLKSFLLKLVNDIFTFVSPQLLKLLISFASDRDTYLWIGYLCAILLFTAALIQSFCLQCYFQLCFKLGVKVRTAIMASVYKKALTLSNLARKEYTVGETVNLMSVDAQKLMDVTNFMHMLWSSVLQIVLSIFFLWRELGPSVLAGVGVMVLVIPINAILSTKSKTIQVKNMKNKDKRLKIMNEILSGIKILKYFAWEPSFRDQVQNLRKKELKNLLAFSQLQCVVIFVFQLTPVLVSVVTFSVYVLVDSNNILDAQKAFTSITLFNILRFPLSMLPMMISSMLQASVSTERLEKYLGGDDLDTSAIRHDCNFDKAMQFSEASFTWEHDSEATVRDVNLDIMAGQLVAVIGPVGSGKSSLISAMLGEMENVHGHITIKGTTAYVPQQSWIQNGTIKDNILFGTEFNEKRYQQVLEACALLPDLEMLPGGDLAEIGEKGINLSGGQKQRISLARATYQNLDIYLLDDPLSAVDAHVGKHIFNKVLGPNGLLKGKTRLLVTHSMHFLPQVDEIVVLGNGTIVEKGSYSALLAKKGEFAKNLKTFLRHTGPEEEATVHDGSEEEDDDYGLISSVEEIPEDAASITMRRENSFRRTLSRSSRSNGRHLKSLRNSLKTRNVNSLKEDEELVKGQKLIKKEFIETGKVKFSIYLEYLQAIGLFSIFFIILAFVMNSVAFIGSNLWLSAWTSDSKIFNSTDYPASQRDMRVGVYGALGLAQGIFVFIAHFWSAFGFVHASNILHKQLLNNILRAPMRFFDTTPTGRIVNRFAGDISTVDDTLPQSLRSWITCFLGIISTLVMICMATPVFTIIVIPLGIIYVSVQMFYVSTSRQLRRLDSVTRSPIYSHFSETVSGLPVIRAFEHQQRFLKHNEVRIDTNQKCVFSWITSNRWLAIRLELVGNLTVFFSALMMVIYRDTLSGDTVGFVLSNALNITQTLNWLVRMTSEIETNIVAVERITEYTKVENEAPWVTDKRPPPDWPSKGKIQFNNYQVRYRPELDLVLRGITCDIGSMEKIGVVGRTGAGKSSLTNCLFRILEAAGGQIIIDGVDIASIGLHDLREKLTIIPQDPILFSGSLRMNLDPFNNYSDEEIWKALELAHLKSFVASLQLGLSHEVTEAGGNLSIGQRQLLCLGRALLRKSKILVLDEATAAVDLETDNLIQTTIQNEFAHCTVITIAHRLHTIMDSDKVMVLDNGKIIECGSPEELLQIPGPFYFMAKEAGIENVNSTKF

Compound	Cumulative excretion in feces (%) of the analyte [2, 6] [%]	Cumulative excretion in urine (%) of the analyte [2, 6] [%]	Cumulative excretion in feces (%) of the analyte [2, 7] [%]	Cumulative excretion in urine (%) of the analyte [2, 7] [%]	Cumulative excretion in feces (%) of the analyte [2, 8] [%]	Cumulative excretion in urine (%) of the analyte [2, 8] [%]	Cumulative excretion of the analyte, SUM of urine and feces [2, 9] [%]	also measured
C[C@]12CC[C@@H]3c4ccc(O)cc4CC[C@H]3[C@@H]1CC[C@@H]2O[C@@H]1O[C@H](C(=O)O)[C@@H](O)[C@H](O)[C@H]1O [E217βG, estradiol-17 β-glucuronide, reference compound]								uptake ratio (UR) [1]: 7.71
CC1=NCCc2c1[nH]c1cc(O)ccc21 [Harmalol]	1.73 ± 1.01	1.16 ± 0.81	1.87 ± 1.04	2.03 ± 2.12	1.89 ± 1.04	2.30 ± 2.36	4.18 ± 2.67	
Cc1[nH]ccc2c1[nH]c1cc(=O)ccc12 [Harmol]	1.24 ± 0.51	0.23 ± 0.42	1.64 ± 0.73	0.50 ± 0.55	1.70 ± 0.75	0.65 ± 0.56	2.35 ± 0.91	Cumulative excretion in feces (%) of the analyte [2, 10]: 5.66 ± 2.96%; Cumulative excretion in urine (%) of the analyte [2, 10]: 2.51 ± 2.82%; Cumulative excretion in feces (%) of the analyte [2, 11]: 7.69 ± 3.33%; Cumulative excretion in urine (%) of the analyte [2, 11]: 4.63 ± 4.53%; Cumulative excretion in feces (%) of the analyte [2, 12]: 8.38 ± 3.47%; Cumulative excretion in urine (%) of the analyte [2, 12]: 5.42 ± 5.19%; Cumulative excretion of the analyte, SUM of urine and feces ([2]; after oral harmine 40.0 mg/kg): 13.80 ± 5.71%
C=C[C@H]1C[N+]2(C)CC[C@H]1C[C@@H]2[C@@H](O)c1ccnc2ccc(OC)cc12 [NMQ, N-methylquinidine, reference compound]								uptake ratio (UR) [3]: 2.05
CC(C)NCC(O)COc1cccc2ccccc12 (stereo not shown) [propranolol, reference compound]								PappAB [4]: 41.90 ± 3.30 × 10^−6 cm/s
lucifer yellow [LY, reference compound]								uptake ratio (UR) [5]: 19.66
